Source: patent publication US20140255968A1, “METHOD FOR FABRICATING A PATTERNED SUBSTRATE FOR A CELL CULTURE, A PATTERNED SUBSTRATE FOR CELL CULTURE, AND A CELL CHIP” (RESEARCH & BUSINESS FOUNDATION SUNGKYUNKWAN UNIVERSITY, priority 2013, published 2014)
“Also recorded” adds a separate entry of the source. Where two headings read alike, the source gives them in different places.

Tested on: bovine aortic endothelial cells (BAECs)
Experiment: Angiogenesis assay on patterned cell chip
Assay type: cell-based
Method: In an angiogenesis assay using the fabricated substrate, bovine aortic endothelial cells (BAECs) were used. To prevent contamination, the substrate fabricated in Example 1-2 was placed in a Petri dish and irradiated with UV light for 16 hours prior to the test. BAEC cells were seeded in 2 ml of complete medium (low glucose DMEM (Dulbecco's Modified Eagle's Medium, WELGENE) containing 1× penicillin/streptomycine (WELGENE) and 20% fetal bovine serum (FBS, WELGENE)) at a cell concentration of 2.5×10^5 cells/ml, and then cultured in a 5% CO2 incubator at 37° C. for 6 hours. Next, the complete medium was replaced with the following media. • untreated plate (normal control group): 10 ml of low-glucose DMEM containing 1× penicillin/streptomycin and 0.2% FBS; • LPS (lipopolysaccharide)-treated plate (negative control group): 10 ml of low-glucose DMEM containing 1× penicillin/streptomycin, 0.2% FBS and 100 ng/ml of LPS; or • VEGF (vascular endothelial growth factor)-treated plate (positive control group): 10 ml of low-glucose DMEM containing 1× penicillin/streptomycin, 0.2% FBS and 100 ng/ml of VEGF. To prevent cells on the substrate from being dried due to evaporation of the media in the incubator, the volume of the media was increased to 10 ml, and to more accurately confirm the effect of the positive control group (VEGF-treated plate), starvation basic medium having a decreased FBS (a kind of growth factor) concentration of 0.2% was used.

[1] = 100 ng/ml in low-glucose DMEM with 0.2% FBS, 18 hours, optical microscope

Substance	angiogenesis on the patterned cell chip compared with the untreated case [1]	number of cells in the regions between cell adsorbing H2/He plasma treated areas, compared with untreated [1]	angiogenesis on the patterned cell chip compared with the untreated case	formation of tube-shaped blood vessels [1]
lipopolysaccharide [LPS]	angiogenesis was inhibited	significant decrease in the number of cells; also recorded: smaller number of cells	–	–
vascular endothelial growth factor [VEGF]	–	proliferation of cells significantly increased; also recorded: significantly larger number of the cells	angiogenesis was induced and promoted	tube-shaped blood vessels were newly formed
